The subject of this assay is L1210 leukemia ip in BDF1 mice, survival T/C. The assay is described as follows: NCI In Vivo Anticancer Drug Screen. Data for tumor model L1210 Leukemia (intraperitoneal) in B6D2F1 (BDF1) mice. The conditions noted are these: endpoint: mean survival time, higher = longer survival. The essentials:
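Mice bearing the transplanted tumor received compound or vehicle. Survival of the treated group was divided by that of the vehicle-treated control group to give the ratio.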

The mark [1] stands for this setting: dose: 100.0 mg/kg/injection, schedule: Q04DX003 (ip), vehicle: saline with Tween-80.
Setting [2] is: dose: 400.0 mg/kg/injection, schedule: Q04DX003 (ip), vehicle: saline with Tween-80.

Inconclusive results and toxic doses are left out.

Take `CN(c1ccccc1)P(=O)(N1CC1)N1CC1`: the T/C is, setting by setting: (dose: 4.4 mg/kg/injection, schedule: Q01DX009 (ip), vehicle: carboxymethylcellulose (CMC)) 117 % of control; (dose: 6.2 mg/kg/injection, schedule: Q01DX001 (ip), vehicle: carboxymethylcellulose (CMC)) 111 % of control; (dose: 6.6 mg/kg/injection, schedule: Q01DX009 (ip), vehicle: carboxymethylcellulose (CMC)) 152 % of control; (dose: 12.5 mg/kg/injection, schedule: Q01DX001 (ip), vehicle: carboxymethylcellulose (CMC)) 104 % of control; (dose: 15.0 mg/kg/injection, schedule: Q01DX009 (ip), vehicle: carboxymethylcellulose (CMC)) 105 % of control; (dose: 22.0 mg/kg/injection, schedule: Q01DX001 (ip), vehicle: carboxymethylcellulose (CMC)) 123 % of control. In addition, the T/C is 159 % of control (dose: 33.0 mg/kg/injection, schedule: Q01DX001 (ip), vehicle: carboxymethylcellulose (CMC)); 115 % of control (dose: 50.0 mg/kg/injection, schedule: Q01DX001 (ip), vehicle: carboxymethylcellulose (CMC)); 102 % of control (dose: 75.0 mg/kg/injection, schedule: Q01DX001 (ip), vehicle: carboxymethylcellulose (CMC)).

As to `Cc1cc(OC(=O)Nc2cccc(C(F)(F)F)c2)c(C(C)C)cc1Cl`, the T/C was 87 % of control (dose: 100.0 mg/kg/injection, schedule: Q01DX009 (ip), vehicle: gum acacia); 91 % of control (dose: 200.0 mg/kg/injection, schedule: Q01DX009 (ip), vehicle: gum acacia); 86 % of control (dose: 400.0 mg/kg/injection, schedule: Q01DX009 (ip), vehicle: gum acacia).

Consider `COC1C(O)C(C)OC(OC2CC3CCC4C(CCC5(C)C(C6=CC(=O)OC6)CCC45O)C3(C)C(OC(C)=O)C2)C1O` (configuration not stated) (tested in a mixture with another compound), for which, under “dose: 25.0 mg/kg/injection, schedule: Q01DX009 (sc), vehicle: steriod suspending solution”, the T/C is 101 % of control.

Turning to `CCC(NC(=O)OCc1ccccc1)C(=O)O` (configuration not stated), the T/C under setting [1] was 98 % of control; the T/C (dose: 200.0 mg/kg/injection, schedule: Q04DX003 (ip), vehicle: saline with Tween-80) is 93 % of control; the T/C under setting [2] is 97 % of control.

Turning to `COc1ccc(/C(=N\O)C(C)=O)cc1OC`, the T/C is 103 % of control (dose: 100.0 mg/kg/injection, schedule: Q04DX002 (ip), vehicle: Klucel (hydroxypropylcellulose) (HPC)); 103 % of control (dose: 200.0 mg/kg/injection, schedule: Q04DX002 (ip), vehicle: Klucel (hydroxypropylcellulose) (HPC)); 91 % of control (dose: 400.0 mg/kg/injection, schedule: Q04DX002 (ip), vehicle: Klucel (hydroxypropylcellulose) (HPC)).

With `S=C(N/N=C/c1ccc(Cl)cc1Cl)Nc1cccc2cccnc12`, the T/C (dose: 5.0 mg/kg/injection, schedule: Q01DX001 (ip), vehicle: saline) was 96 % of control; the T/C (dose: 10.0 mg/kg/injection, schedule: Q01DX001 (ip), vehicle: saline) is 96 % of control; the T/C (dose: 20.0 mg/kg/injection, schedule: Q01DX001 (ip), vehicle: saline) is 86 % of control; the T/C (dose: 40.0 mg/kg/injection, schedule: Q01DX001 (ip), vehicle: saline) is 98 % of control; the T/C (dose: 80.0 mg/kg/injection, schedule: Q01DX001 (ip), vehicle: saline) is 90 % of control.

Turning to `COc1ccc2ncc(CO)cc2c1`, the T/C was 96 % of control (dose: 100.0 mg/kg/injection, schedule: Q04DX003 (ip), vehicle: saline); 98 % of control (dose: 200.0 mg/kg/injection, schedule: Q04DX003 (ip), vehicle: saline); 112 % of control (dose: 400.0 mg/kg/injection, schedule: Q04DX003 (ip), vehicle: saline).

Regarding `C1#CCCCCCC#CCCCC1`, the T/C is, setting by setting: (dose: 37.5 mg/kg/injection, schedule: Q01DX009 (ip), vehicle: acetone) 89 % of control; (dose: 75.0 mg/kg/injection, schedule: Q01DX001 (ip), vehicle: acetone) 91 % of control; (dose: 75.0 mg/kg/injection, schedule: Q01DX009 (ip), vehicle: acetone) 97 % of control; (dose: 150.0 mg/kg/injection, schedule: Q01DX001 (ip), vehicle: acetone) 94 % of control; (dose: 150.0 mg/kg/injection, schedule: Q01DX009 (ip), vehicle: acetone) 98 % of control.

As to `COC(=O)/C=C(\C)Nc1cc(OC)ccc1OC`, the T/C was 94 % of control (dose: 100.0 mg/kg/injection, schedule: Q01DX001 (ip), vehicle: saline); 87 % of control (dose: 200.0 mg/kg/injection, schedule: Q01DX001 (ip), vehicle: saline); 92 % of control (dose: 400.0 mg/kg/injection, schedule: Q01DX001 (ip), vehicle: saline).

As to `CCCCN1C(=O)c2cccnc2C1=O`, the T/C was 102 % of control (dose: 75.0 mg/kg/injection, schedule: Q04DX003 (ip), vehicle: Klucel (hydroxypropylcellulose) (HPC)); 103 % of control (dose: 100.0 mg/kg/injection, schedule: Q01DX001 (ip), vehicle: saline with Tween-80); 103 % of control under setting [1]; 96 % of control (dose: 150.0 mg/kg/injection, schedule: Q04DX003 (ip), vehicle: Klucel (hydroxypropylcellulose) (HPC)); 97 % of control (dose: 200.0 mg/kg/injection, schedule: Q01DX001 (ip), vehicle: saline with Tween-80); 95 % of control (dose: 300.0 mg/kg/injection, schedule: Q04DX003 (ip), vehicle: Klucel (hydroxypropylcellulose) (HPC)). The T/C runs as follows: (dose: 400.0 mg/kg/injection, schedule: Q01DX001 (ip), vehicle: saline with Tween-80) 93 % of control; under setting [2], 95 % of control.

For the compound `Cc1cc(S(=O)(=O)O)cc(N)c1N`, the T/C runs as follows: (dose: 100.0 mg/kg/injection, schedule: Q01DX001 (ip), vehicle: Klucel (hydroxypropylcellulose) (HPC)) 105 % of control; (dose: 200.0 mg/kg/injection, schedule: Q01DX001 (ip), vehicle: Klucel (hydroxypropylcellulose) (HPC)) 98 % of control; (dose: 400.0 mg/kg/injection, schedule: Q01DX001 (ip), vehicle: Klucel (hydroxypropylcellulose) (HPC)) 91 % of control.

As to `COc1ccc2c(c1)CCC1C2CCC2(C)C1CCC21CCNP(=O)(N(CCCl)CCCl)O1` (configuration not stated), the T/C (dose: 100.0 mg/kg/injection, schedule: Q04DX003 (ip), vehicle: Klucel (hydroxypropylcellulose) (HPC)) was 101 % of control; the T/C (dose: 200.0 mg/kg/injection, schedule: Q04DX003 (ip), vehicle: Klucel (hydroxypropylcellulose) (HPC)) was 103 % of control; the T/C (dose: 400.0 mg/kg/injection, schedule: Q04DX003 (ip), vehicle: Klucel (hydroxypropylcellulose) (HPC)) was 92 % of control.

Regarding `CCN(CC)C1=C(Cl)C(=O)c2ccccc2C1=O`, the T/C by setting is: (dose: 100.0 mg/kg/injection, schedule: Q01DX009 (ip), vehicle: saline with Tween-80) 93 % of control; (dose: 200.0 mg/kg/injection, schedule: Q01DX009 (ip), vehicle: saline with Tween-80) 93 % of control.

As for `CS(=O)(=O)NC1=NCCN1[N+](=O)[O-]`, the T/C is, setting by setting: (dose: 10.0 mg/kg/injection, schedule: Q01DX009 (ip), vehicle: Klucel (hydroxypropylcellulose) (HPC)) 88 % of control; (dose: 20.0 mg/kg/injection, schedule: Q01DX009 (ip), vehicle: Klucel (hydroxypropylcellulose) (HPC)) 91 % of control; (dose: 20.0 mg/kg/injection, schedule: Q04DX003 (ip), vehicle: Klucel (hydroxypropylcellulose) (HPC)) 98 % of control; (dose: 40.0 mg/kg/injection, schedule: Q01DX009 (ip), vehicle: Klucel (hydroxypropylcellulose) (HPC)) 98 % of control; (dose: 40.0 mg/kg/injection, schedule: Q04DX003 (ip), vehicle: Klucel (hydroxypropylcellulose) (HPC)) 101 % of control.

In the case of `Cc1cc(C)c([I+]c2c(C)cc(C)cc2C)c(C)c1`, the T/C was 102 % of control (dose: 0.12 mg/kg/injection, schedule: Q01DX009 (ip), vehicle: saline); 111 % of control (dose: 0.25 mg/kg/injection, schedule: Q01DX009 (ip), vehicle: saline); 90 % of control (dose: 0.5 mg/kg/injection, schedule: Q01DX001 (ip), vehicle: saline); 122 % of control (dose: 0.5 mg/kg/injection, schedule: Q01DX009 (ip), vehicle: saline); 100 % of control (dose: 0.5 mg/kg/injection, schedule: Q01DX015 (ip), vehicle: saline); 111 % of control (dose: 0.5 mg/kg/injection, schedule: Q04DX003 (ip), vehicle: acetone). In addition, the T/C was 101 % of control (dose: 1.0 mg/kg/injection, schedule: Q01DX001 (ip), vehicle: saline); 96 % of control (dose: 1.0 mg/kg/injection, schedule: Q01DX015 (ip), vehicle: saline); 92 % of control (dose: 2.0 mg/kg/injection, schedule: Q01DX001 (ip), vehicle: saline); 102 % of control (dose: 2.0 mg/kg/injection, schedule: Q01DX015 (ip), vehicle: saline); 103 % of control (dose: 4.0 mg/kg/injection, schedule: Q01DX015 (ip), vehicle: saline).
